Reference: patent US8039455B2, “Macrocyclic compounds useful as BACE inhibitors” (Novartis AG, priority 2005, dated 2011)

Biological target: human BACE (Homo sapiens, UniProt P56817)
Experiment: Test 1: Inhibition of Human BACE
Format: biochemical
Source text: Test 1: Inhibition of Human BACE

Sequence of human BACE (P56817 46-457 limits assumed): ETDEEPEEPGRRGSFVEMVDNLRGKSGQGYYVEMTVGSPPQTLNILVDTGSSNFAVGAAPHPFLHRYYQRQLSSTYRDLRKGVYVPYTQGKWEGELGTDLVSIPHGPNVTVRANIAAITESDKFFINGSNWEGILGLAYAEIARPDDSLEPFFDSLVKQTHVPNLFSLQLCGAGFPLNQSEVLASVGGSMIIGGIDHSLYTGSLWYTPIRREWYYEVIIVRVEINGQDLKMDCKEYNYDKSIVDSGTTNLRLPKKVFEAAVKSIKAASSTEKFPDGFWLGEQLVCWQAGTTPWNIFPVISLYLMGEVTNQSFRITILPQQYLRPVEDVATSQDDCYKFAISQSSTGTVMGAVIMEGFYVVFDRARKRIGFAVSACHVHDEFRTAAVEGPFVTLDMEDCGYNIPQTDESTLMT

CC(=O)c1cc2cc(c1)C(=O)N[C@H]([C@H](O)CNC1(c3cccc(C(C)C)c3)CC1)Cc1cccc(c1)CCCCO2 [Example 5, (S)-18-Acetyl-4-{(R)-1-hydroxy-2-[1-(3-isopropyl-phenyl)-cyclopropylamino]-ethyl}-15-oxa-3-aza-tricyclo[14.3.1.1*6,10*]henicosa-1(20),6,8,10(21),16,18-hexaen-2-one]
IC50: 250 nM
